Test results from paper PMC6658998, “Pharmacological characterization of the seven human NOX isoforms and their inhibitors” (Redox Biology, 2019).

What was measured:
[1] = molecular target: T1, human NOX4 (Homo sapiens, UniProt Q9NPH5); test: WST-1 O2•- detection in tetracycline-induced NOX4 HEK293 T-REx cells; type: cell-based; conditions: WST-1, tetracycline 1 μg/mL 24 h
T1 sequence (Q9NPH5 1-578): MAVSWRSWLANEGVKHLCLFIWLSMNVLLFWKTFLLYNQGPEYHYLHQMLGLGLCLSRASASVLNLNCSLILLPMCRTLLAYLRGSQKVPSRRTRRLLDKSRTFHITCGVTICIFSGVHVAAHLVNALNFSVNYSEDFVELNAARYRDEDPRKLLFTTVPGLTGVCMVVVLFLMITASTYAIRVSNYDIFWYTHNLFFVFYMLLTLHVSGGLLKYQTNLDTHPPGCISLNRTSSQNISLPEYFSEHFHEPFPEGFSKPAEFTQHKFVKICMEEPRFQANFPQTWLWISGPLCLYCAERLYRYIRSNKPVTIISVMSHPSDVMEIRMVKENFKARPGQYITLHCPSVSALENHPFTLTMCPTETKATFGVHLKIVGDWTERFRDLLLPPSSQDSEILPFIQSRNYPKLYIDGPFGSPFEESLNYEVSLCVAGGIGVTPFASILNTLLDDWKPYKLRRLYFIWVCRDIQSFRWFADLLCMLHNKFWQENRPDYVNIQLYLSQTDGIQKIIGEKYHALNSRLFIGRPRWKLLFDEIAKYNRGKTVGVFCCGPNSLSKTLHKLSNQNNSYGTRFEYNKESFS
T1 sequence (P13498 1-195 partner): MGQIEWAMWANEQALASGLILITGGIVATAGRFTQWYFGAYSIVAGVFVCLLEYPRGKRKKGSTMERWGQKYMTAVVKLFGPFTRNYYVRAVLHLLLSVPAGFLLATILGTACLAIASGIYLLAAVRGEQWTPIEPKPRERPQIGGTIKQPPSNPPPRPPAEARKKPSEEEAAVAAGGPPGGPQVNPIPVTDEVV

[2] = molecular target: T1, human NOX4; test: Amplex Red/HRP H2O2 detection in tetracycline-induced NOX4 HEK293 T-REx cells
[3] = molecular target: T2, NOX5 (Homo sapiens, UniProt Q96PH1); test: Amplex Red/HRP H2O2 detection in NOX5-expressing HEK293 cells; type: cell-based; conditions: PMA 0.1 μM and ionomycin 1 μM, read-out: IC50 NOX5 (HEK) AR
T2 construct: expressed in transfected cells
T2 sequence (Q96PH1 19-737 isoform Q96PH1-3 limits assumed): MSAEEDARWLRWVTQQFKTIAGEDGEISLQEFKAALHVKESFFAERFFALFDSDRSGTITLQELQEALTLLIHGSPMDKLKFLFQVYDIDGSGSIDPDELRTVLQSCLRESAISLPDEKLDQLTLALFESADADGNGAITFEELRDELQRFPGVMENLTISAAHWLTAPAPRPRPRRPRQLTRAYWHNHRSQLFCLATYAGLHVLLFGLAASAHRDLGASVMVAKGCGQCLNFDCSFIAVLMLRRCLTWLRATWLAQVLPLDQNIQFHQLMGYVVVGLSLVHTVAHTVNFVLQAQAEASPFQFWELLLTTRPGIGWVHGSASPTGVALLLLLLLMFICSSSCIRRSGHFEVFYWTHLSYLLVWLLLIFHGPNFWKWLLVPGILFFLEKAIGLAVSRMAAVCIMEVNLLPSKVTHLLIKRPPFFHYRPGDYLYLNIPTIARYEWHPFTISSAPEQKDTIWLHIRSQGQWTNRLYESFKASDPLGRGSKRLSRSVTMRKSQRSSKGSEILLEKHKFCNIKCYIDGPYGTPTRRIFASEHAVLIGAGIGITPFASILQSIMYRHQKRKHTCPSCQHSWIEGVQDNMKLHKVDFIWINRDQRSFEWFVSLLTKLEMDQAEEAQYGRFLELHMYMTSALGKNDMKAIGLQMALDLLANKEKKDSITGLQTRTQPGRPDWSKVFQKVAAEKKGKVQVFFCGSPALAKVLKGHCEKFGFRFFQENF

COc1cc(C(C)=O)ccc1O [Apocynin, apocynin]
IC50 [1]: > 50 µM
IC50 [2]: > 50 µM
IC50 [3]: > 50 µM

COc1cc(C(C)=O)cc(-c2cc(C(C)=O)cc(OC)c2O)c1O [Diapocynin, diapocynin]
IC50 [1]: > 50 µM
IC50 [2]: > 50 µM
IC50 [3]: 16.6 µM

O=c1c2ccccc2[se]n1-c1ccccc1 [Ebselen, ebselen]
IC50 [2]: 4.1 µM
IC50 [3]: 2.1 µM

Cc1c2c(=O)n(-c3ccccc3Cl)[nH]c2cc(=O)n1Cc1ccccn1 [GKT136901]
IC50 [1]: > 50 µM
IC50 [2]: 2.7 µM
IC50 [3]: 8 µM
